# From ChEMBL document CHEMBL1811886 (J Med Chem, 2011)
# Experiments:
# [1] = Aqueous solubility of the compound at pH 2; type: physicochemical
# Histamine H3 receptor [2] = target: T1, Histamine H3 receptor (Homo sapiens, UniProt Q9Y5N1); assay: Displacement of [3H]NAMH from human histamine H3 receptor expressed in CHO cells; type: cell-based
# [3] = target: T2, Sodium-dependent noradrenaline transporter (Homo sapiens, UniProt P23975); assay: Inhibition of norepinephrine transporter
# Rhesus monkey [4] = assay: Toxicity in monkey up to 28 days; type: organism-based, Macaca mulatta; conditions: in vivo, 672 h
# [5] = Aqueous solubility of the compound at pH 7.4; type: physicochemical
# [6] = Mutagenic activity in human peripheral blood lymphocytes by micronucleus test in presence metabolic activation; type: toxicity, cell-based; conditions: lymphocyte
# Histamine H3 receptor [7] = target: T3, Histamine H3 receptor (Rattus norvegicus, UniProt Q9QYN8); assay: Inverse agonist activity at rat histamine H3 receptor assessed as inhibition of R-alpha-methylhistamine induced [35S]GTPgammaS binding; type: functional
# [8] = target: Muscarinic acetylcholine receptor M2 (Homo sapiens, UniProt P08172); assay: Inhibition of muscarinic M2 receptor
# Rhesus monkey [9] = assay: Toxicity in monkey assessed as changes in respiratory function after 28 days; type: organism-based, Macaca mulatta; conditions: in vivo, 672 h
# Histamine H3 receptor [10] = target: T1, Histamine H3 receptor; assay: Inverse agonist activity at human histamine H3 receptor assessed as inhibition of R-alpha-methylhistamine induced [35S]GTPgammaS binding; type: functional
# [11] = Apparent permeability across human Caco2 cell membrane; type: ADME, cell-based; conditions: Caco-2
# [12] = Mutagenic activity in human peripheral blood lymphocytes by micronucleus test in absence metabolic activation; type: toxicity, cell-based; conditions: lymphocyte
# Rattus norvegicus [13] = assay: Inhibition of RAMH-induced dipsogenia in ip dosed Long Evans rat administered 15 mins prior to RAMH challenge; type: functional
# Rhesus monkey [14] = assay: Toxicity in monkey assessed as changes in cardiovascular function after 28 days; type: organism-based, Macaca mulatta, Heart; conditions: in vivo, 672 h
# Rattus norvegicus [15] = assay: Inhibition of RAMH-induced dipsogenia in Long Evans rat administered as po 15 mins prior to RAMH challenge; type: functional
# Rattus norvegicus [16] = organism: Rattus norvegicus; assay: Toxicity in rat up to 28 days; type: organism-based; conditions: in vivo, 672 h
# [17] = Distribution coefficient log D of the compound at pH 7.4; type: physicochemical; conditions: octanol/water
# [18] = Drug level in rat brain at 100 mg/kg, po administered after 1 hr post dosing; type: ADME, organism-based; design: dose 100 mg/kg, route oral; conditions: read-out: Drug uptake
# Salmonella typhimurium = assay: Mutagenic activity in Salmonella Typhimurium by Ames test; type: toxicity, organism-based; conditions: salmonella enterica subsp. enterica serovar typhimurium
# [19] = target: T4, Sodium-dependent dopamine transporter (Homo sapiens, UniProt Q01959); assay: Inhibition of recombinant human dopamine transporter
# [20] = Mutagenic activity in Salmonella Typhimurium by Ames test in presence of rat liver S9 fraction; type: toxicity, subcellular; conditions: salmonella enterica subsp. enterica serovar typhimurium
# [21] = Dissociation constant, pKa of the compound; type: physicochemical
# Rattus norvegicus [22] = assay: Toxicity in rat central nervous system assessed as changes in behavioral response at 10 to 300 mg/kg, po measured from 15 mins through 6 hrs by Irwin test; type: organism-based; design: dose 10-300 mg/kg, route oral; conditions: in vivo
# [23] = target: T2, Sodium-dependent noradrenaline transporter; assay: Inhibition of recombinant human norepinephrine transporter
# Rattus norvegicus [24] = assay: Toxicity in rat central nervous system assessed as side effects up to 100 mg/kg, po measured from 15 mins through 6 hrs by Irwin test; type: organism-based; design: dose 100 mg/kg, route oral; conditions: in vivo
# [25] = Inhibition of PDE3
# [26] = target: Poly [ADP-ribose] polymerase 1 (Homo sapiens, UniProt P09874); assay: Inhibition of human PARP1
# [27] = target: T4, Sodium-dependent dopamine transporter; assay: Inhibition of dopamine transporter
# Histamine H3 receptor [28] = target: T3, Histamine H3 receptor; assay: Displacement of [3H]NAMH from rat histamine H3 receptor expressed in CHO cells; type: cell-based
# Histamine H3 receptor [29] = target: T3, Histamine H3 receptor; assay: Antagonist activity at histamine H3 receptor in rat cortical membrane; type: functional, cell membranes
# [30] = target: Alpha-1A adrenergic receptor (Homo sapiens, UniProt P35348); assay: Inhibition of adrenergic alpha 1A receptor
# Sequence of Alpha-1A adrenergic receptor (P35348 whole entry): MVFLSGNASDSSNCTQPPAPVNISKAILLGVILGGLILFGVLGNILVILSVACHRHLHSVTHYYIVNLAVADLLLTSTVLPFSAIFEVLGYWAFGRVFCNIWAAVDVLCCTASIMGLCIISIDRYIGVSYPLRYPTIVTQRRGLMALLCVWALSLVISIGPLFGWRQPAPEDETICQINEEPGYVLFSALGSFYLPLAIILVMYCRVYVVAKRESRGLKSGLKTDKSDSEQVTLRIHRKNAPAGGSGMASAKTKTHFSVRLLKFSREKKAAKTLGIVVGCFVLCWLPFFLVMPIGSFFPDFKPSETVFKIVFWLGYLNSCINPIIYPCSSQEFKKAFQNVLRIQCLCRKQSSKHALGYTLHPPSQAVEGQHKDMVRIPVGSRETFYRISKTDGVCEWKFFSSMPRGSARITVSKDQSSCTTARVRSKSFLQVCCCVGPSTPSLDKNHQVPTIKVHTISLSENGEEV
# T3 sequence (Q9QYN8 whole entry): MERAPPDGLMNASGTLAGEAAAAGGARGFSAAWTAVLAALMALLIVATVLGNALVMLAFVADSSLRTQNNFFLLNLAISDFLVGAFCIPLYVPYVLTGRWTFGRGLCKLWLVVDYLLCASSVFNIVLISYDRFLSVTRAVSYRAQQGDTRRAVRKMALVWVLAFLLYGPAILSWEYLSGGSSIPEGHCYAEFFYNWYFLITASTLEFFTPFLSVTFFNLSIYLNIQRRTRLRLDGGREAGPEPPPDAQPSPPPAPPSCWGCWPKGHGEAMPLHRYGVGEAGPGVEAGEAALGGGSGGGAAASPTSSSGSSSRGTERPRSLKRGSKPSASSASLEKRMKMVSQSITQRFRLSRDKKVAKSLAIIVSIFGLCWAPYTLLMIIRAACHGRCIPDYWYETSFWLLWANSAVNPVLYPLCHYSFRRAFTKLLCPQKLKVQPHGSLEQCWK
# T2 sequence (P23975 whole entry): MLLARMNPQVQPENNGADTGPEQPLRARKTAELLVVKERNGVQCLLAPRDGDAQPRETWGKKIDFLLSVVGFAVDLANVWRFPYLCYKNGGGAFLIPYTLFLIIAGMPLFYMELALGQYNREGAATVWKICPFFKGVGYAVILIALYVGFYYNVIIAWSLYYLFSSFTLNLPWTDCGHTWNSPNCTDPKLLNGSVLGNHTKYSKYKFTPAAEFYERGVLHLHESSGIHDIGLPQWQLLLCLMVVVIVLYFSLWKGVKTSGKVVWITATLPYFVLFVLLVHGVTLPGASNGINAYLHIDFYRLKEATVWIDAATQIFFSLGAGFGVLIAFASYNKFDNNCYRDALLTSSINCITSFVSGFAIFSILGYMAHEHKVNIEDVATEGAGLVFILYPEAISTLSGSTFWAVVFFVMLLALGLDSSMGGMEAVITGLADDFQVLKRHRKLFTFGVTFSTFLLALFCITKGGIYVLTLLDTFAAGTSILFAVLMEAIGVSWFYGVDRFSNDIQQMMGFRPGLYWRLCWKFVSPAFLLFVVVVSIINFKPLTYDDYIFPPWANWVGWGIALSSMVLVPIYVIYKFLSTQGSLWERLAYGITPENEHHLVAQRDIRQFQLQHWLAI
# T4 sequence (Q01959 whole entry): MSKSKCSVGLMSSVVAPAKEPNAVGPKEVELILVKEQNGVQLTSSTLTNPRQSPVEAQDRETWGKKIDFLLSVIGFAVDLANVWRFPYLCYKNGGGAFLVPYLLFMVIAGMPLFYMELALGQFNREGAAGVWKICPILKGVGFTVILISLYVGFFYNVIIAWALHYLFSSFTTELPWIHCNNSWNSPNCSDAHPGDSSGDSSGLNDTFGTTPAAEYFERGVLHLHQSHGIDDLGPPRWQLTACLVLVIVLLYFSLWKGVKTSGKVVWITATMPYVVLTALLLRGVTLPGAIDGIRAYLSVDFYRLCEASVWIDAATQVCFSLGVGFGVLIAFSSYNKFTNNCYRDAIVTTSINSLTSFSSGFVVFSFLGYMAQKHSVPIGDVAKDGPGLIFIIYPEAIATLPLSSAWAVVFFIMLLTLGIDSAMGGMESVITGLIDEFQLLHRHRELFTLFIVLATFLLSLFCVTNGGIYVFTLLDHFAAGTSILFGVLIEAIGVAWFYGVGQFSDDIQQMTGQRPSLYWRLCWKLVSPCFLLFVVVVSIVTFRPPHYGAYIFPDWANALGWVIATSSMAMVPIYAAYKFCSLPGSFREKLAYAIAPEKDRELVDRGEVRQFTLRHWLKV
# T1 sequence (Q9Y5N1 whole entry): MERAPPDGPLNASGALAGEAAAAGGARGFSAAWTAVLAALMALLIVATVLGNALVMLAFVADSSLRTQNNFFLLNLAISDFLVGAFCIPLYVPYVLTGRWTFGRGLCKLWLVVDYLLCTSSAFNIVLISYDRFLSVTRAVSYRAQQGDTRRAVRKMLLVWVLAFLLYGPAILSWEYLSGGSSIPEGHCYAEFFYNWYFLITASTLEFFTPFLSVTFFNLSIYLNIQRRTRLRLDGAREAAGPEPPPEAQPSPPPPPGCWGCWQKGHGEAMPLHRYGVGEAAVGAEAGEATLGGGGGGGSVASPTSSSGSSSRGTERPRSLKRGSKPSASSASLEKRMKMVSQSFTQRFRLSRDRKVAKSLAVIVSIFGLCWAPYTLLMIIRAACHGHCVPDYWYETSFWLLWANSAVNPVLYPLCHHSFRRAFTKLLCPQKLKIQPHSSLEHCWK
# Sequence of Muscarinic acetylcholine receptor M2 (P08172 whole entry): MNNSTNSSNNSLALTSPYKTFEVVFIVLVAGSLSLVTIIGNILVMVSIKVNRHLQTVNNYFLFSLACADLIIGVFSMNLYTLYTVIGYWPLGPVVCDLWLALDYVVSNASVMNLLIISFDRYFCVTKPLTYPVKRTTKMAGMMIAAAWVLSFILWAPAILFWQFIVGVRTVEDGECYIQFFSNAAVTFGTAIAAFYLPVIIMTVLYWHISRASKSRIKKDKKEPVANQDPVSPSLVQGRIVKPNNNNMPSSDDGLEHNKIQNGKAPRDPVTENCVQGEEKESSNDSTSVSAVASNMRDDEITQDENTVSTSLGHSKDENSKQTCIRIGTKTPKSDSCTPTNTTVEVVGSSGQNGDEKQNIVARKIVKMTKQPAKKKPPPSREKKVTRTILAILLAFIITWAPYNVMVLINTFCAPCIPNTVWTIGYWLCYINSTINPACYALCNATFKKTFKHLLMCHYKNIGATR
# Sequence of Poly [ADP-ribose] polymerase 1 (P09874 whole entry): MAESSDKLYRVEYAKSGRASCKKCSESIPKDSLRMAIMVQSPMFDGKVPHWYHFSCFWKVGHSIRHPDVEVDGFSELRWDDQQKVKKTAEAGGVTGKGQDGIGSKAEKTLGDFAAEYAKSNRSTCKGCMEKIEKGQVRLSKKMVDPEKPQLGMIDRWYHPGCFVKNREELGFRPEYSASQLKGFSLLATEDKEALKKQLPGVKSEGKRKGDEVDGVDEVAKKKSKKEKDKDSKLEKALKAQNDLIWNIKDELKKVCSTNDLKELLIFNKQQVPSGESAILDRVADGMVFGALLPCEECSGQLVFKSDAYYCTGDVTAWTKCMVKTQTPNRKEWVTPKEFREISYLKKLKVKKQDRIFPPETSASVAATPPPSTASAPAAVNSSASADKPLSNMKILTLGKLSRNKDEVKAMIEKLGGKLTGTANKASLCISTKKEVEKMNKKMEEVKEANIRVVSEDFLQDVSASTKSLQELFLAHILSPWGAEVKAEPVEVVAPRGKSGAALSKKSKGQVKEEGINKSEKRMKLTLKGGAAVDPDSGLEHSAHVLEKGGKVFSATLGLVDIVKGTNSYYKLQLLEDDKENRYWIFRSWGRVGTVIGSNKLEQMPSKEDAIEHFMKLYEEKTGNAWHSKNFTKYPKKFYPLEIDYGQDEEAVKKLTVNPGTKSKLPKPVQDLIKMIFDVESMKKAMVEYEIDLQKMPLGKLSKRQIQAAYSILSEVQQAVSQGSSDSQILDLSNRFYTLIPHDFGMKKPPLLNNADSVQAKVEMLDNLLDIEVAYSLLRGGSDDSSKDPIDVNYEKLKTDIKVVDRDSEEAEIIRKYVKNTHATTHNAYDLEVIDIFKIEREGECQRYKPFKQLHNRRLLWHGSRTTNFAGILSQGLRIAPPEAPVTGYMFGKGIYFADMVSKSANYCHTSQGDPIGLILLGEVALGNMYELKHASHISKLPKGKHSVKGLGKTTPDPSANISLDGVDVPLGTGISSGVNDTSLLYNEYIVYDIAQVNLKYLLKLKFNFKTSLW
compound,measurement,setting,value
C[C@@H]1CCCN1CCCOc1ccc(-c2ccc(=O)[nH]n2)cc1 [IRDABISANT],solubility,[1],> 2000 µg/mL
same,Ki,Histamine H3 receptor [2],0.002 µM
same,Ki,[3],10 µM
same,Activity,Rhesus monkey [4],Non-toxic
same,solubility,[5],> 2000 µg/mL
same,Activity,[6],Non-toxic
same,EC50,Histamine H3 receptor [7],0.002 µM
same,Ki,[8],3.7 µM
same,Activity,Rhesus monkey [9],Non-toxic
same,EC50,Histamine H3 receptor [10],0.0011 µM
same,Papp,[11],13.5 ×10⁻⁶ cm/s
same,Activity,[12],Non-toxic
same,ED50,Rattus norvegicus [13],0.06 mg/kg
same,Activity,Rhesus monkey [14],Non-toxic
same,ED50,Rattus norvegicus [15],0.01 mg/kg
same,Activity,Rattus norvegicus [16],Non-toxic
same,logD,[17],0.6
same,concentration at 1 h,[18],36 µM
same,Activity,Salmonella typhimurium,Non-toxic
same,IC50,[19],9.4 µM
same,Activity,[20],Non-toxic
same,pKa,[21],10.2
same,Activity,Rattus norvegicus [22],Non-toxic
same,IC50,[23],17.5 µM
same,Activity,Rattus norvegicus [24],Non-toxic
same,IC50,[25],15 µM
same,IC50,[26],> 30 µM
same,Ki,[27],11 µM
same,Ki,Histamine H3 receptor [28],0.0072 µM
same,Ki,Histamine H3 receptor [29],0.0027 µM
same,Ki,[30],9.8 µM
